Measured values as given in ChEMBL document CHEMBL1153977, “Fluorinated non-imidazole histamine H3 receptor antagonists” (Bioorg Med Chem Lett, 2009).

Tests used:
Histamine H3 receptor = Histamine H3 receptor (Homo sapiens, UniProt Q9Y5N1); assay: Displacement of [125I]iodoproxyfan from human histamine H3 receptor expressed in […] cells; assay type: cell-based, HEK293
Mus musculus = assay: In vivo histamine H3 receptor potency in po dosed Swiss mouse assessed as N'-methylhistamine level; assay type: functional

Sequence of Histamine H3 receptor (Q9Y5N1 whole entry): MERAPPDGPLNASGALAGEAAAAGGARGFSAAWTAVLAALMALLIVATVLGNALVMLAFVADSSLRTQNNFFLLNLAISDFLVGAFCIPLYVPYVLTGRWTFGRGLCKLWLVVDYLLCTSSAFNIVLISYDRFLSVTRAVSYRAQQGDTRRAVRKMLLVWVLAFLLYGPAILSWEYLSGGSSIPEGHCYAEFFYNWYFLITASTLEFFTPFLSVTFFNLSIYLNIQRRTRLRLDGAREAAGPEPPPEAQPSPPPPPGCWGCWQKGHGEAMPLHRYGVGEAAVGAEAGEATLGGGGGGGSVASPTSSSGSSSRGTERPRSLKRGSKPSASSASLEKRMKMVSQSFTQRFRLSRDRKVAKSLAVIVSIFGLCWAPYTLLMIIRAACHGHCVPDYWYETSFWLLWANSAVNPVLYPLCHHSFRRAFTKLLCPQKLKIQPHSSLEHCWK

Row | Compound | Ki (Histamine H3 receptor) | ED50 (Mus musculus)
1 | c1cc(CN2CCCCC2)ccc1COc1ccc(CN2CCCCC2)cc1 | – | 9.6 mg/kg
2 | FCCc1ccc(OCCCN2CCCCC2)cc1 | 43 nM | –
3 | F[C@@H]1CCN(Cc2ccc(OCCCN3CCCC3)cc2)C1 | 0.31 nM | –
4 | FCc1ccc(OCCCN2CCCCC2)cc1 | 17.3 nM | –
5 | F[C@@H]1CCN(Cc2ccc(OCCCN3CCCCC3)cc2)C1 | 0.28 nM | –
6 | F[C@H]1CCN(Cc2ccc(OCCCN3CCCCC3)cc2)C1 | 0.28 nM | 3.9 mg/kg
7 | BrC1CCN(Cc2ccc(OCCCN3CCCCC3)cc2)CC1 | 0.2 nM | –
8 | FC1CCN(Cc2ccc(OCCCN3CCCC3)cc2)CC1 | 0.26 nM | 12 mg/kg
9 | c1cc(OCCCN2CCCCC2)ccc1CN1CCCCC1 [JNJ-5207852] | – | 0.12 mg/kg
10 | Clc1ccc(CCCOCCCN2CCCCC2)cc1 [PITOLISANT] | – | 1.5 mg/kg

More lines, main results first:

Row | Ki (Histamine H3 receptor) | Compound | ED50 (Mus musculus)
11 | 11 nM | N#Cc1ccc(OCCCN2CCCCC2)cc1 | 0.2 mg/kg
12 | 0.99 nM | FC1CCN(CCCOc2ccc(CN3CCCC3)cc2)CC1 | –
13 | 0.24 nM | FC1(F)CCN(Cc2ccc(OCCCN3CCCCC3)cc2)CC1 | 0.4 mg/kg
14 | 0.068 nM | ClC1CCN(Cc2ccc(OCCCN3CCCCC3)cc2)CC1 | –
15 | 0.84 nM | CS(=O)(=O)OC1CCN(Cc2ccc(OCCCN3CCCCC3)cc2)CC1 | –
16 | > 1000 nM | N#Cc1ccc(OCCCN2CCC(F)(F)CC2)cc1 | –
17 | 0.094 nM | FC1CCN(Cc2ccc(OCCCN3CCCCC3)cc2)CC1 | 7.4 mg/kg
